The text below walks through data of US20230052152A1, “COMPOUNDS FOR TREATMENT OF ALZHEIMER'S DISEASE” (SULFATEQ B.V., priority 2019, published 2023).

The subject of data set [1] is SH-SY5Y cells. The experiment in a line: Glutamate-induced excitotoxicity, differentiated SH-SY5Y neuronal-like cells, Neutral Red viability. Particulars: Homo sapiens, 60 mM glutamate 24 h; for EC50: 30 min pre-incubation, Neutral Red viability; for Emax: maximal restoration of viability. The data set is classed as cell-based. The procedure: (§1) Human SH-SY5Y neuroblastoma cells (ATCC #CRL-2266) were maintained in DMEM medium containing 10% fetal bovine serum and 1% Penicillin-Streptomycin solution (#P4333, Sigma-Aldrich, St. Louis, Mo.) and passaged when the cultures reach a confluency of 70%. Prior to experiments, SH-SY5Y cells were differentiated by serum reduction (to 1%) and stimulation with 10 μM retinoic acid (#R7882, Sigma-Aldrich, St. Louis, Mo.) for 72 hours. Differentiated SH-SY5Y cells were seeded at 0.6·10^5 cells/cm^2 for all experiments.
(§2) Differentiated SH-SY5Y cells were pre-incubated with SUL compounds (dose range 8·10^−4 to 1·10^−8 M) under standard culture conditions for 30 min and then stimulated with either 1-glutamate (60 mM; #12843-0, Sigma-Aldrich, St. Louis, Mo.) or dopamine (100 μM; #H8502, Sigma, St. Louis, Mo.) for an additional 24 h. Neutral Red Assay Solution (#N2889, Sigma-Aldrich, St. Louis, Mo.) was added to the cultures at a 10% (v/v) concentration during the final 4 hours of culture. Cells were washed with warm PBS and Neutral red solubilized in acid ethanol (1% acetic acid in 50% EtOH). Absorbances were recorded at 540 nm in a CLARIOStar Plus plate reader (BMG Labtech, Germany).
(§3) All experiments were performed in triplicate per condition and averaged. Data obtained from two individual experiments were used for evaluation in GraphPad Prism 8.0 (GraphPad Software Inc, Ca). 4 parameter non-linear regression was used to determine the efficacy and potency of SUL compounds to reduce the excitotoxicity induced by either 1-glutamate or dopamine.
SH-SY5Y neuroblastoma cells were differentiated into neuronal-like cells according to established protocols and stimulated with 60 mM glutamate to induce excitotoxicity.

Data set [2] concerns SH-SY5Y cells. The data set is described as follows: Dopamine-induced excitotoxicity, differentiated SH-SY5Y neuronal-like cells, Neutral Red viability. The data set is classed as cell-based. The settings on record: Homo sapiens, dopamine 24 h; for EC50: 30 min pre-incubation, Neutral Red viability; for Emax: maximal restoration of viability. The procedure: as §1, §2, §3
Differentiated SH-SY5Y neuroblastoma cells were stimulated with 150 μM dopamine to induce excitotoxicity.

In data set [3] the test system is SH-SY5Y cells. The data set is described as follows: Glutamate-induced excitotoxicity, differentiated SH-SY5Y neuronal-like cells, Neutral Red viability. The data set is classed as cell-based, human. The settings on record: 60 mM glutamate, 10^−3 to 10^−8 M.
Data set [4] deals with WT and APP/PS1 mice. The data set is described as follows: Fear conditioning (hippocampal dependent context memory test), freezing. The data set is classed as in vivo, mouse. The settings on record: chronic oral via food 2.5 to 6 moa, versus vehicle food. The source says:
(§4) The APP/PS1 mouse model is a widely used A-beta pathology model for Alzheimer's disease (AD) (1 of the 2 main neuropathological hallmarks of AD). These mice contain human transgenes for APP (Swedish mutation) and PSEN1 (L166P mutation), which will lead to pathological amyloid deposition in the brain and impairments in hippocampal dependent memory and Long Term Potentiation (LTP) starting at ˜3 months of age (3 moa).
(§5) The effectiveness of SUL-138 ((6-hydroxy-2,5,7,8-tetramethylchroman-2-yl)(4-(2-hydroxyethyl)piperazin-1-yl)methanone) in relieving/preventing common pathology in the APP/PS1 model was tested. The effect on memory was tested in a hippocampal dependent context test (Fear conditioning (FC)) and synaptic connectivity was tested via electrophysiological LTP (Long-term potentiation) measurements. Both are impaired in this mouse model under basal conditions. In addition, Phenotypers (Sylics) were used to exclude that SUL-138 induces atypical behavior after chronic oral treatment.
Wild type (WT) and APP/PS1 mice were each divided in 2 groups, either receiving vehicle or SUL-138 via their food. Group size amounted 12 animals. […]
FC: mice were exposed to a context for 2 min after which they received a 0.7 mA footshock. […] 24 h later mice were put in the same context and freezing levels were measured for 2 min.
Memory was assessed at 6 moa by measuring freezing following context acquisition.

Data set [5] relates to WT and APP/PS1 mice. The experiment in a line: Long-term potentiation (LTP) in acute hippocampal slices after chronic oral treatment. The data set is classed as in vivo, mouse. Particulars: 3×100 Hz stimulation, p<0.05.
Description: as §4
(§6) Wild type (WT) and APP/PS1 mice were each divided in 2 groups, either receiving vehicle or SUL-138 via their food. Group size amounted 12 animals. Based on mouse weight of ˜30 g, food intake of ˜5 g/day and desired oral intake of 30 mg/day/kg, food pellets were sprayed with SUL-138 in water with 0.0145% ethanol at 1 g SUL-138 in 5 kg food. Vehicle food was prepared by spraying with the same volume of 0.0145% ethanol containing water.
(§7) Mice were treated chronically between 2.5 moa (pre-pathology/memory deficit) and 6 moa (age at which clear neuropathology and memory deficits occur) prior to testing.
LTP: Acute coronal hippocampal slices were kept in artificial CSF and LTP was measured after 3×100 Hz stimulation.
Between 8-14 hippocampal slices per group (2A: WT ctrl, WT SUL-138, 2B: APP ctrl, APP SUL-138) received LTP evoked by 3×100 Hz stimulation (tetanus) of 1 sec separated by 20 sec. The slope was measured for 60 min. LTP was expressed as a percentage of baseline. […]

The subject of data set [6] is WT and APP/PS1 mice. The data set is described as follows: Phenotypers spontaneous behavior after chronic oral treatment. The data set is classed as in vivo, mouse. Particulars: 3 days in phenotypers. The protocol: as §5, §6
Phenotypers (provided by Sylics, Amsterdam, Netherlands): Mice were housed in the phenotypers for 3 days during which spontaneous behavior: activity, dark/light, habituation, kinematics, light dark phase transition pattern and sheltering were measured.

A short description of data set [7]: Overall welfare and body weight during chronic oral treatment. The data set is classed as in vivo, mouse. The settings on record: vehicle versus SUL-138 treated animals. The protocol:
as §6, §7

Another data set relates to APP/PS1 mice. The experiment in a line: Plaque load (anti-Amyloid beta 6E10 staining of hippocampal slices). The settings on record: three months oral, versus vehicle. The data set is classed as in vivo, mouse. The protocol: APP/PS1 (n=10) and wildtype mice (WT, n=10) mice were treated, either with vehicle or SUL-138. Mice were treated for 3 months starting at 3 months of age with either SUL-138 or vehicle treated food pellets. The mice were sacrificed at 6 months of age, the age at which (among others) hippocampal dependent memory impairment and apparent plaque load are expected.
4% PFA perfused brains, stored on sucrose, were sliced at […] using a cryostat (−20° C.; Leica). Hippocampal slices (n=2/animal; 5 animals/group) were washed 3×10 min with 1× PBS, and then blocked for 1 h in Blocking solution (10 mL 1× PBS+500 μL normal Goat Serum+0.250 g Bovine Serum Albumin+20 μL Triton-100). The slices were incubated overnight with anti-Amyloid beta (6E10) (ITK Diagnostics, 1:400), washed 3×10 min with 1× PBS and then incubated with secondary Goat anti-mouse Alexa fluorescent 488 antibody (Sigma-Aldrich, 1:250) for 2 h. Then slices were washed 3×10 min with 1× PBS and mounted on slides.
Slices were imaged using the Zeiss Cell Discover 7 high content microscope with LSM900 confocal head. Using Fiji, both hippocampi were selected separately for 5 animals per group (yellow line in FIG. 3A) and number and size of plaques were measured (FIG. 3B, C). The mean number of plaques and plaque size per animal were used for statistical analyses in GraphPad 8 using Student's t-test, one-sided.

Another data set in a line: Bioavailability in brain. The data set is classed as in vivo.
In data set [8] the test system is prostaglandin synthases and the thromboxane synthase A. The data set is described as follows: Hippocampal protein expression of prostaglandin synthases and thromboxane synthase A. The data set is classed as in vivo, mouse. Particulars: hippocampal tissue, wildtype or APP/PS1 mice. The source says:
Hippocampal tissue from wildtype and APP/PS1 mice was examined for the protein expression of prostaglandin synthases and the thromboxane synthase A. Peptides resembling the prostaglandin synthase PTGS1, PTGES2, PTGES3, and PTGFS were found in the hippocampal tissue of both wildtype and APP/PS1 mice (Table 4). No protein fragments of PTGS2, PTGDS, PTGES1, PTGIS and TXA could be found.

Entries after “also recorded” stand apart in the source; their conditions may differ.

As for `Cc1c(C)c2c(c(C)c1O)CCC(C)(C(=O)O)O2` (centres unmarked) [SUL-11, 6-hydroxy-2,5,7,8-tetramethylchroman-2-carboxylic acid, reference compound], the EC50 stood at 4620 nM in the data set on SH-SY5Y cells [1] and 8350 nM in the data set with SH-SY5Y cells [2]. Moreover, the Emax worked out at 76.7% in the data set with SH-SY5Y cells [1] and 79.5% in the data set on SH-SY5Y cells [2]. For the same molecule, the “Effectiveness in increasing viability of glutamate-challenged cells versus the other SUL-compounds” value in the data set on SH-SY5Y cells [3] is recorded as “clearly less effective”.
Regarding `Cc1c(C)c2c(c(C)c1O)CC[C@@](C)(C(=O)N[C@@H]1CCCNC1)O2` [SUL-13, (S)-6-hydroxy-2,5,7,8-tetramethyl-N-((R)-piperidin-3-yl)chromane-2-carboxamide], the figures for the EC50 with SH-SY5Y cells [1] and with SH-SY5Y cells [2] were 3820 nM and 324 nM, respectively. Besides, the figures for the Emax in the data set with SH-SY5Y cells [1] and in the data set with SH-SY5Y cells [2] were 100% and 91.9%, respectively.
Turning to `Cc1c(C)c2c(c(C)c1O)CC[C@@](C)(C(=O)N1CCN(CCO)CC1)O2` [SUL-138, (S)-(6-hydroxy-2,5,7,8-tetramethylchroman-2-yl)(4-(2-hydroxyethyl)piperazin-1-yl)methanone], the EC50 with SH-SY5Y cells [1] was found to be 1420 nM; in the data set on SH-SY5Y cells [2], 660 nM. For the same molecule, the Emax with SH-SY5Y cells [1] and with SH-SY5Y cells [2] was 100% each time. The “Freezing levels (memory)” value is listed as “increased; also recorded: restored to WT levels” in the data set with WT and APP/PS1 mice [4] (APP/PS1 mice); “increased” in the data set on WT and APP/PS1 mice [4] (WT mice). The “LTP maintenance (min 30-60)” value in the data set with WT and APP/PS1 mice [5] (APP mice) is “significantly (p<0.05) higher; also recorded: restore in APP/PS1 mice memory and LTP to control levels”; with WT and APP/PS1 mice [5] (WT mice), “significantly (p<0.05) higher”. In the data set with WT and APP/PS1 mice [6], the “Spontaneous behavior (activity, dark/light, habituation, kinematics, light dark phase transition pattern, sheltering)” value is listed as “did not induce differences”. Besides, the Overall welfare entry in data set [7] is “did not show differences”. Further, the Plaque size result with APP/PS1 mice (p=0.0021) is listed as “reduced”. Moreover, the Number of plaques entry with APP/PS1 mice (p=0.0138) is “reduced”. Also, the Bioavailability in brain result in the data set “Bioavailability in brain” is listed as “appears to be high”. Moreover, the “Protein expression of prostaglandin synthesizing enzymes” value in data set [8] is recorded as “did not alter”.
With `Cc1c(C)c(O)c(CC[C@@](C)(O)C(=O)N2CCN(CCO)CC2)c(C)c1O` [SUL-138M2, 4-(2,5-dihydroxy-3,4,6-trimethylphenyl)-2-hydroxy-1-(4-(2-hydroxyethyl)piperazin-1-yl)-2-methylbutan-1-one], the EC50 in the data set on SH-SY5Y cells [1] amounted to 4430 nM; in the data set with SH-SY5Y cells [2], 1690 nM. The results for the Emax in the data set with SH-SY5Y cells [1] and with SH-SY5Y cells [2] were 100% and 94.7%, respectively.
Regarding `Cc1c(C)c2c(c(C)c1O)CC[C@](C)(C(=O)N1CCNCC1)O2` [SUL-150, (R)-(6-hydroxy-2,5,7,8-tetramethylchroman-2-yl)(piperazin-1-yl)methanone], the EC50 in the data set on SH-SY5Y cells [1] was determined as 122 nM; in the data set with SH-SY5Y cells [2], 55.5 nM. The Emax with SH-SY5Y cells [1] and in the data set with SH-SY5Y cells [2] was 100% throughout.
As for `Cc1c(C)c2c(c(C)c1O)CC[C@@](C)(C(=O)N1CCNCC1)O2` [SUL-151, (S)-(6-hydroxy-2,5,7,8-tetramethylchroman-2-yl)(piperazin-1-yl)methanone], the EC50 is 96.1 nM with SH-SY5Y cells [1] and 69.2 nM in the data set with SH-SY5Y cells [2]. Moreover, the Emax with SH-SY5Y cells [1] and with SH-SY5Y cells [2] was 100% in each case.

As a reminder, the EC50 is the concentration at which the effect is half-maximal. Higher therefore signals lower potency in that assay.
